Source: patent publication US8283322B2, “Formulations for nonsurgical exogenous crosslink therapy” (Orthopeutics, LP, priority 2008, dated 2012)
≈ marks a conversion by molar mass, not a printed value.

Legend:
calf lumbar spinal discs = test: Diffusion study in calf lumbar spinal discs (area of diffusion zone, ImageJ); settings: 0.1% (w/v) SDS in PBS, 1 hr, 37° C.; p=0.021
Procedure: FIG. 12—Diffusion kinetics of genipin and BSA in calf lumbar spinal discs. 200 μl of 0.33% (w/v) or 1 mg/ml BSA-Texas Red were injected at a depth of 1 cm into the discs of individual calf lumbar motion segments and incubated for 1, 3 or 6 hours at 37° C. Samples were transected and the area of each diffusion zone at each time point and for each reagent was determined from photographs using ImageJ software.
FIG. 13—Effect of surfactants on the diffusion of GP and BSA-TR. 200 μl of 0.33% (w/v) or 1 mg/ml BSA-Texas Red formulated in PBS in the absence of presence of 0.1% (w/v) of either Tween-20 or SDS were injected at a depth of 1 cm into the discs of individual calf lumbar motion segments. Segments were incubated for 1 hr at 37° C. and the samples were then transected and the area of each diffusion zone determined from photographs using ImageJ software.
In order to observe the diffusion kinetics of these markers, GP (0.33% (w/v)) or BSA-TR (1 mg/ml) were dissolved in PBS and 200 μl injected at a depth of 1 cm into the discs of individual calf lumbar motion segments and incubated at 37° C. for 1, 3 or 6 hrs in sealed ZipLoc bags containing a sheet of paper towel moistened with H2O. […] In some cases, however, diffusion zones merged and were not possible to quantify and in subsequent experiments injections were limited to the left and right lateral regions. […]

[1] = system: calf intervertebral discs; test: Hydration change / fluid flux of disc regions (soaking, creep loading, resoaking); parameters: species or system calf (4 month-old bovine); settings: for % increase by Genipin, NP: flux into and out of the central nucleus region vs control flux
Description: By measuring the change in hydration of different regions of the intervertebral disc (nucleus pulposus, inner annulus, and outer annulus fibrosus) prior to and after periods of soaking, sustained compressive loading, and resoaking, the fluid flux to and from different regions can be determined. By comparing these measurements between control discs and discs treated with crosslinking reagents known to have minimal cytotoxicity, we see the effect of crosslinking treatment on fluid flux and permeability. A total of 24 calf (4 month-old bovine) intervertebral discs were used for this study. Water content of three different areas of the […] tissue were tested-the nucleus pulposus, inner annulus fibrosus and outer annulus fibrosus. Hydration change was determined by weighing the specimen using a micro-balance (sensitivity: 0.1 mg). Water content (M) was calculated as: M=(Wet Weight-Dry Weight)/Wet Weight=g H2O/g Wet Weight The drying procedure consisted of putting the specimens in the oven with a controlled temperature of 90° C. for 24 hrs. The specimens were separated into four tests: • 1. Group A: Three specimens were in this group. It served as a control group. The specimens were soaked in PBS (phosphate buffered saline) for 1 day and then the hydration analysis was performed. • 2. Group B1: Four specimens were in this group. In addition to the one day PBS soaking, the specimens soaked in PBS for 2 more days as a control and then the hydration analysis was performed. • Group B2: Five specimens were in this group. In addition to the one day PBS soaking, the specimens were soaked in 0.33% genipin solution for 2 days and then the hydration analysis was performed. • 3. In group C, a small daytime amount of constant compressive loading (creep) was simulated. • C1: Three specimens were in this group. The specimens were soaked in PBS for 3 days and then […] of compression was applied by a materials testing machine for 1 hour. The disc was compressed in a 5 degree of flexion posture produced by two rollers attached to the loading ram of the materials testing machine. The hydration analysis was performed immediately after the creep loading. • C2: Three specimens were in this group. The specimens were soaked in 0.33% Genipin solution for 2 days after 1 day of PBS soaking and performed identical creep loading with […] compressive load. The hydration analysis was performed immediately after the creep loading. • 4. In group D, the imbibition of water following a period of compressive loading that typically occurs in the night time as a person is in a recumbent posture was simulated. • D1: The specimens were soaked in PBS solution for 3 days and then 1 hr of creep loading at […] was applied. After the creep loading, the specimens were placed in a container in 1 PBS for one more day followed by the hydration analysis. • D2: Three specimens were included and were soaked in 0.33% genipin solution for 2 days after one day of PBS soaking. A creep load of […] for 1 hr was then applied. The specimens were put in PBS for another day followed by the hydration analysis.

physchem = assay type: physicochemical
Description: In the case of crosslinking agents that are not very water-soluble, additional reagents may be required to maintain the solubility of the crosslinking agent. Such reagents should be miscible with water and function to increase the solubility of the crosslinking agent by reducing the hydrophilicity of the aqueous medium. […] At the upper limit, GP was soluble in 100% DMSO to a level of 2.6M. […] Thus manipulation of the buffer concentration and the addition of co-solvents allows for the manipulation of the crosslinking reagent concentration to the desired level. The values were all determined at ambient room temperature. Crosslinker solubility could also be increased by increasing the temperature of the solvent.

[2] = combined fluid flow out (creep) and in (resoaking)

## COC(=O)C1=CO[C@@H](O)[C@@H]2C(CO)=CC[C@H]12 [Genipin, genipin]
Calf lumbar spinal discs
  enhancement of diffusion by SDS: approximately 30%
[1]; [2]
  Genipin Flux, Inner AF: 0.1008
  Genipin Flux, NP: 0.04983
  Genipin Flux, Outer AF: 0.05294
[1]
  % increase by Genipin, NP: 63.7%
[1]; listed as genipin
  % increase by Genipin, NP: 64%
[1]; flux vs control flux
  % increase by Genipin, Inner AF: 17.3%
  % increase by Genipin, Outer AF: 5.7%
physchem; aqueous buffer
  solubility: 60.4 mM (≈ 13.7 mg/mL)
physchem; aqueous with cosolvent or surfactant or cyclodextrin
  solubility: 74.6 mM (≈ 16.9 mg/mL)
physchem; organic solvent or mixture
  solubility: 2600 mM (≈ 588 mg/mL)
physchem; pH 9, aqueous buffer
  solubility: 39.6 mM (≈ 8.96 mg/mL)
physchem; pH 9, aqueous with cosolvent or surfactant or cyclodextrin
  solubility: 63.3 mM (≈ 14.3 mg/mL)
